{"source": "BindingDB's records for doi:10.1021/jm960012o", "about": "(Allergan, 1996)", "data": [{"experiment": "Displacement of [3H]-clonidine from bovine imidazoline receptor I-1", "units": {"Ki": "nM"}, "values": [{"smiles": "CC(C)C1C2CCC(C2)C1N", "note": "(centres undefined) [3-Isopropyl-bicyclo[2.2.1]hept-2-ylamine]", "Ki": 42}, {"smiles": "NC[C@H](O)c1ccc(O)c(O)c1", "note": "[4-[(1R)-2-amino-1-hydroxyethyl]benzene-1,2-diol]", "Ki": "> 100000"}, {"smiles": "Clc1cccc(Cl)c1N=C1NCCN1", "note": "[2-(2,6-dichloroanilino)-2-imidazoline]", "Ki": 8.9}, {"smiles": "COc1nc(C)nc(Cl)c1N=C1NCCN1", "note": "[(4-Chloro-6-methoxy-2-methyl-pyrimidin-5-yl)-imidazolidin-2-ylidene-amine]", "Ki": 56}]}]}
